Laboratory results reported in patent publication US9573910B2, “Oxazolidinone antibacterial compound” (Lee Pharma Limited, priority 2013, dated 2017).
Like-named read-outs stand apart in the source and are kept apart here.

What was measured:
S. typhi = assay type: cell-based
B. subtilis = assay type: cell-based
P. aeruginosa = assay type: cell-based
P. vulgaris = assay type: cell-based
[1] = system: Stenotrophomonas maltophilia; assay: Agar plate assay, zone of growth inhibition; assay type: cell-based; details: for zone of inhibition at 50 µg/disc: Stenotrophomonas maltophilia, read-out: Zone of growth inhibition in mm; for Activity against S. maltophilia (in words): agar plate
Protocol: To evaluate the same, 0 to 250 μg concentration range used for agar plate assay. Two percent agar plates were prepared and 24 hours grown S. maltophilia was spread on agar plate and incubated at 4° C. After 30 min, the agar plates consisting of S. maltophilia were brought to sterile environment at room temperature and using sterile borer wells were developed. […] After 24 hours of incubation at 37° C., the zone of inhibition was measured.

S. mutans = assay type: cell-based
K. pneumonia = assay type: cell-based
B. cereus (1) = assay type: cell-based
P. mirabilis = assay type: cell-based
B. sterothemophilus = assay type: cell-based
B. circulans = assay type: cell-based
E. coli = assay type: cell-based
B. sphaericus = assay type: cell-based
B. cereus (2) = assay type: cell-based
B. cereus (3) = assay type: cell-based
M. luteus = assay type: cell-based
Lysinobacillus = assay type: cell-based
P. putida = assay type: cell-based
S. maltophilla = assay type: cell-based
B. megatherium = assay type: cell-based
S. maltophilia = assay: Susceptibility test profile for commercially available antibiotics; assay type: cell-based, Stenotrophomonas maltophilia
Protocol: Anti bacterial evaluation of compound-I was done against Stenotrophomonas maltophilia on following parameters— • f. Agar-plate assay for different concentrations (10, 50, 100, 150 μg) • g. MIC studies • 1. With different concentrations (1000 to 5 μg/ml-˜10 different concentrations) • 2. Different time periods (4 to 32 hrs—8 different time intervals) • h. Mode of action with relation to survivability of organism • 1. Cidal/static with concentration and incubation time based) • 2. Evaluation by colony counting/dye based • i. Susceptibility test (evaluation of >40 antibiotics of different nature) • j. Antibacterial potential studies with other infectious bacteria (˜20 different strains) Results Agar-Plate Assay
Susceptibility Test Profile of S. maltophilia for Different Antibiotics (FIG. 10)

CC(=O)NC[C@H]1CN(c2ccc(N3CCOCC3)c(F)c2)C(=O)O1 [Linezolid]
Zone of growth inhibition in mm (S. typhi): 40 mm | Zone of growth inhibition in mm (B. subtilis): 40 mm | Zone of growth inhibition in mm (P. aeruginosa): 00 mm | Zone of growth inhibition in mm (P. vulgaris): 00 mm | zone of inhibition at 50 µg/disc ([1]; S. maltophilia, agar plates, 50 μg of each compound dissolved in DMSO): 0 mm | Activity against S. maltophilia (in words) [1]: not inhibitory | Zone of growth inhibition in mm (S. mutans): 40 mm | Zone of growth inhibition in mm (K. pneumonia): 35 mm | Zone of growth inhibition in mm (B. cereus (1)): 00 mm | Zone of growth inhibition in mm (S. paratyphi): 00 mm | Zone of growth inhibition in mm (P. mirabilis): 35 mm | Zone of growth inhibition in mm (B. sterothemophilus): 00 mm | Zone of growth inhibition in mm (B. circulans): 38 mm | Zone of growth inhibition in mm (E. coli): 35 mm | Zone of growth inhibition in mm (B. sphaericus): 30 mm | Zone of growth inhibition in mm (B. cereus (2)): 35 mm | Zone of growth inhibition in mm (B. cereus (3)): 45 mm | Zone of growth inhibition in mm (M. luteus): 45 mm | Zone of growth inhibition in mm (Lysinobacillus): 40 mm | Zone of growth inhibition in mm (P. putida): 00 mm | Zone of growth inhibition in mm (S. maltophilla): 00 mm | Zone of growth inhibition in mm (B. megatherium): 37 mm

O=C1OCCN1/N=C/c1ccc([N+](=O)[O-])o1 [Furazolidone]
Zone (mm) (S. maltophilia; Quantity 50 μg): Resistant

CC[C@H]1OC(=O)[C@H](C)[C@@H](O[C@H]2C[C@@](C)(OC)[C@@H](O)[C@H](C)O2)[C@H](C)[C@@H](O[C@@H]2O[C@H](C)C[C@H](N(C)C)[C@H]2O)[C@](C)(OC)C[C@@H](C)C(=O)[C@H](C)[C@@H](O)[C@]1(C)O [Clarithromycin]
Zone (mm) (S. maltophilia; Quantity 15 μg): Resistant

CCN[C@@H]1C[C@H](N)[C@@H](O[C@H]2OC(CN)=CC[C@H]2N)[C@H](O)[C@H]1O[C@H]1OC[C@](C)(O)[C@H](NC)[C@H]1O.CCN[C@@H]1C[C@H](N)[C@@H](O[C@H]2OC(CN)=CC[C@H]2N)[C@H](O)[C@H]1O[C@H]1OC[C@](C)(O)[C@H](NC)[C@H]1O.O=S(=O)(O)O.O=S(=O)(O)O.O=S(=O)(O)O.O=S(=O)(O)O.O=S(=O)(O)O [Netillin(Netilmicin sulphate), Netilmicin sulphate]
Zone (mm) (S. maltophilia; Quantity 30 μg): 7 mm

CCC[C@@H]1C[C@@H](C(=O)N[C@@H]([C@H]2O[C@H](SC)[C@H](O)[C@@H](O)[C@H]2O)[C@@H](C)O)N(C)C1 [Lincomycin]
Zone (mm) (S. maltophilia; Quantity 2 μg): Resistant

CCn1cc(C(=O)O)c(=O)c2ccc(C)nc21 [Nalidixic]
Zone (mm) (S. maltophilia; Quantity 30 μg): 7 mm

CN[C@H](CC(C)C)C(=O)N[C@H]1C(=O)N[C@@H](CC(N)=O)C(=O)N[C@H]2C(=O)N[C@H]3C(=O)N[C@H](C(=O)N[C@H](C(=O)O)c4cc(O)cc(O)c4-c4cc3ccc4O)[C@H](O)c3ccc(c(Cl)c3)Oc3cc2cc(c3O[C@@H]2O[C@H](CO)[C@@H](O)[C@H](O)[C@H]2O[C@H]2C[C@](C)(N)[C@H](O)[C@H](C)O2)Oc2ccc(cc2Cl)[C@H]1O [Vancomycin]
Zone of growth inhibition in mm (S. typhi): 14 mm | Zone of growth inhibition in mm (B. subtilis): 25 mm | Zone of growth inhibition in mm (P. aeruginosa): 00 mm | Zone of growth inhibition in mm (P. vulgaris): 00 mm | zone of inhibition at 50 µg/disc [1]: 0 mm | Activity against S. maltophilia (in words) [1]: not inhibitory | Zone of growth inhibition in mm (S. mutans): 30 mm | Zone of growth inhibition in mm (K. pneumonia): 25 mm | Zone of growth inhibition in mm (B. cereus (1)): 00 mm | Zone of growth inhibition in mm (S. paratyphi): 25 mm | Zone of growth inhibition in mm (P. mirabilis): 27 mm | Zone of growth inhibition in mm (B. sterothemophilus): 00 mm | Zone of growth inhibition in mm (B. circulans): 27 mm | Zone of growth inhibition in mm (E. coli): 25 mm | Zone of growth inhibition in mm (B. sphaericus): 12 mm | Zone of growth inhibition in mm (B. cereus (2)): 27 mm | Zone of growth inhibition in mm (B. cereus (3)): 32 mm | Zone of growth inhibition in mm (M. luteus): 32 mm | Zone of growth inhibition in mm (Lysinobacillus): 30 mm | Zone of growth inhibition in mm (P. putida): 00 mm | Zone of growth inhibition in mm (S. maltophilla): 00 mm | Zone of growth inhibition in mm (B. megatherium): 27 mm

Teicoplanin
Zone (mm) (S. maltophilia; Quantity 30 μg): 4 mm

Penicillin
Zone (mm) (S. maltophilia; Quantity 10 μg): 6 mm

Gentamicin
Zone (mm) (S. maltophilia; Quantity 10 μg): 7 mm
